ChEMBL document CHEMBL1158792, “Constituents of the leaves of Macaranga tanarius” (J Nat Prod, 2005)
In brackets after ≈: the same amount, converted by molar mass. Activity calls are given as the source filed them. The calls are words filed in the database; no cut-off is given here.

How the values were obtained:
[1] = biological target: T1, Prostaglandin G/H synthase 2 (Mus musculus) (UniProt Q05769); experiment: (§1) Inhibition of COX2 in mouse lung fibroblast assessed as PGE2 production by radioimmunoassay
T1 sequence (whole entry): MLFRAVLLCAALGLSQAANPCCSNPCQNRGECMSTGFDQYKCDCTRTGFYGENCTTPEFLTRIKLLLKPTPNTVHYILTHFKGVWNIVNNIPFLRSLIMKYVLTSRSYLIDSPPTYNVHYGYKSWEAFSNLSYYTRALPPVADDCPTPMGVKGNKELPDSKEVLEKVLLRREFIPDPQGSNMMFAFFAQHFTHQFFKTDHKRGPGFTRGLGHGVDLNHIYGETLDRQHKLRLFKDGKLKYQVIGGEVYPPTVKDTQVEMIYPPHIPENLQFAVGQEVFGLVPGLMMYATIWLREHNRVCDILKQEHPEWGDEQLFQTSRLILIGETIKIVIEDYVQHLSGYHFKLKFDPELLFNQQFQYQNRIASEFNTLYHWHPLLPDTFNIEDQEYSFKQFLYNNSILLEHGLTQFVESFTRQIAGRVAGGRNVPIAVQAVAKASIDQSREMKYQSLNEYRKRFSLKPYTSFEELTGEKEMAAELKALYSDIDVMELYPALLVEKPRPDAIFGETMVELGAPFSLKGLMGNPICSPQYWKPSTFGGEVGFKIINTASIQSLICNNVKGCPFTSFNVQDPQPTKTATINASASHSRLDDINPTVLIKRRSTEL

KB = experiment: Cytotoxicity against human KB cells; type: functional, cell-based
BC = experiment: (§2) Cytotoxicity against human BC cells; type: functional, cell-based
NCI-H187 = experiment: Cytotoxicity against human NCI-H187 cells; type: functional, cell-based
[2] = test system: Radical scavenging activity; experiment: Antioxidant activity assessed as DPPH radical scavenging activity by DPPH stable radical assay
[3] = as §2; type: functional, cell-based
Vero = experiment: Cytotoxicity against african green monkey Vero cells; type: cell-based; settings: Chlorocebus sabaeus
[4] = biological target: T2, Prostaglandin G/H synthase 2 (Mus musculus, UniProt Q05769); experiment: as §1
T2 sequence (Q05769 whole entry): T1 sequence (whole entry)

Row | Activity [1] | IC50 [2] [µM] | IC50 [4] [µM] | Structure (SMILES) | Activity (KB) | Activity (BC) | Activity (NCI-H187) | IC50 [3] [mg/L] | IC50 (Vero) [mg/L] | IC50 (KB) [mg/L] | IC50 (NCI-H187) [mg/L]
1 | inactive |  |  | COc1ccc([C@@H]2CC(=O)c3c(cc(OC)c(C/C=C(\C)CCC=C(C)C)c3O)O2)cc1OC | inactive | inactive | inactive |  |  |  | 
2 | inactive |  |  | CC1=CC(=O)CC(C)(C)[C@@]1(O)CC[C@@H](C)O | inactive | inactive | inactive |  |  |  | 
3 | inactive | 33 |  | C=C(C)C(O)Cc1c(O)cc2c(c1O)C(=O)C[C@@H](c1ccc(O)c(O)c1C/C=C(\C)CCC=C(C)C)O2 (some centres undefined) [TANARIFLAVANONE C] | inactive | inactive | inactive |  |  |  | 
4 | inactive |  |  | CC(C)=CCCC1(C)C=Cc2c([C@@H]3CC(=O)c4c(cc(O)c(CC=C(C)C)c4O)O3)ccc(O)c2O1 (some centres undefined) | inactive | inactive | inactive |  |  |  | 
5 | inactive |  |  | CC1=CC(=O)CC(C)(C)[C@@]1(O)/C=C/[C@@H](C)O | inactive | inactive | inactive |  |  |  | 
6 | inactive |  |  | COc1cc(O)c2c(c1)O[C@H](c1ccc(OC)c(O)c1C/C=C(\C)CCC=C(C)C)CC2=O | inactive | inactive | inactive |  |  |  | 
7 |  | 13 | 8.72 | CC(C)=CCC/C(C)=C/Cc1c([C@@H]2CC(=O)c3c(O)cc(O)cc3O2)ccc(O)c1O [NYMPHAEOL B] | inactive | inactive | inactive |  |  |  | 
8 |  | 14 |  | CC(C)=CCC/C(C)=C/Cc1c(O)cc2c(c1O)C(=O)C[C@@H](c1ccc(O)c(O)c1)O2 [NYMPHAEOL A] |  |  |  | 2.7 (≈ 6.36 µM) | 3.8 (≈ 8.95 µM) | 4.6 (≈ 10.8 µM) | 1.5 (≈ 3.53 µM)

The remaining lines, values behind:

Row | Structure (SMILES) | Activity [1] | IC50 [2] [µM] | IC50 [4] [µM] | Activity (KB) | Activity (BC) | Activity (NCI-H187) | IC50 [3] [mg/L] | IC50 (Vero) [mg/L] | IC50 (KB) [mg/L] | IC50 (NCI-H187) [mg/L]
9 | COc1cc2c(c(O)c1CC=C(C)C)C(=O)C[C@@H](c1ccc(OC)c(OC)c1C/C=C(\C)CCC=C(C)C)O2 | inactive | 599 |  | inactive | inactive | inactive |  |  |  | 
10 | COc1cc(O)c2c(c1)O[C@H](c1ccc(OC)c(OC)c1C/C=C(\C)CCC=C(C)C)CC2=O | inactive |  |  | inactive | inactive | inactive |  |  |  | 
11 | Cc1cc(C(C)(C)C)c(O)c(C(C)(C)C)c1 [BUTYLATED HYDROXYTOLUENE] |  | 30 |  |  |  |  |  |  |  | 
12 | C=C(C)C(O)CC/C(C)=C/Cc1c(O)cc2c(c1O)C(=O)C[C@@H](c1ccc(O)c(O)c1)O2 (some centres undefined) [TANARIFLAVANONE D] |  | 20 |  |  |  | inactive | 6.5 (≈ 14.8 µM) | 19.5 (≈ 44.3 µM) |  | 
13 | CC(C)=CCC/C(C)=C/Cc1c([C@@H]2CC(=O)c3c(cc(O)c(CC=C(C)C)c3O)O2)ccc(O)c1O [NYMPHAEOL C] | inactive | 15 |  | inactive | inactive | inactive |  |  |  | 
14 | COc1ccc([C@@H]2CC(=O)c3c(cc(OC)c(CC=C(C)C)c3O)O2)c(C/C=C(\C)CCC=C(C)C)c1O | inactive | 413 |  | inactive | inactive | inactive |  |  |  | 
